Assay results from paper PMC6017736, “Indole-3-Carbonitriles as DYRK1A Inhibitors by Fragment-Based Drug Design” (Molecules : A Journal of Synthetic Chemistry and Natural …, 2018).
Marks after values point to notes of the source that are not given here.

Experiments:
[1] = target: T1, DYRK3 (Homo sapiens, UniProt O43781); test: Protein kinase assay ([γ-33P]-ATP, RS peptide substrate), DYRK3; type: biochemical; conditions: for IC50: 15 µM ATP
T1 sequence (O43781 1-588): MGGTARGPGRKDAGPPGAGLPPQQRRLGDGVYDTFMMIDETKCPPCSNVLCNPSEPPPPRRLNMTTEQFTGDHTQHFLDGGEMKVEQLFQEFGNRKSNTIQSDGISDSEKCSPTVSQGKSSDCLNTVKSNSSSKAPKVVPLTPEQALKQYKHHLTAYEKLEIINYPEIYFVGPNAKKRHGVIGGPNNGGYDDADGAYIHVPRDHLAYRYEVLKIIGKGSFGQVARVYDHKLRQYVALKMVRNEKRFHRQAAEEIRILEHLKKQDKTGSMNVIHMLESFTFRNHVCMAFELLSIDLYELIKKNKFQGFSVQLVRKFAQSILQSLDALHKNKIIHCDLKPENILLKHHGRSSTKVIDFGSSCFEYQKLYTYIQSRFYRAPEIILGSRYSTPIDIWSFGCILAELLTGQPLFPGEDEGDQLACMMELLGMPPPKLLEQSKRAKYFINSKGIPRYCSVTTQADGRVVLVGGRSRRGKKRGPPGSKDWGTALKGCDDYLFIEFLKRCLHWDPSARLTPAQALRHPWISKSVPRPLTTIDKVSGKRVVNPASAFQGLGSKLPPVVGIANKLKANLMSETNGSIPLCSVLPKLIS
Procedure: (§1) DYRK1A, 1B, 2, 3 (human, recombinant, expressed in E. coli as GST fusion proteins) and CLK1, 2, 3, and 4 (mouse, recombinant, expressed in E. coli as GST fusion proteins) were assayed as described for GSK-3 in Buffer A (supplemented extemporaneously with 0.15 mg BSA/mL + 1 mM DTT) with 1 µg of RS peptide ([…]) as a substrate.

[2] = target: CLK4 (Mus musculus, UniProt O35493); test: Protein kinase assay ([γ-33P]-ATP, RS peptide substrate), CLK4; type: biochemical; conditions: 15 µM ATP
Procedure: as §1

[3] = target: CLK2 (Mus musculus, UniProt O35491); test: Protein kinase assay ([γ-33P]-ATP, RS peptide substrate), CLK2; type: biochemical; conditions: 15 µM ATP
Procedure: as §1

[4] = target: DYRK1B (Homo sapiens, UniProt Q9Y463); test: Protein kinase assay ([γ-33P]-ATP, RS peptide substrate), DYRK1B; type: biochemical; conditions: 15 µM ATP; read-out: IC50 DYRK 1B
Procedure: as §1

[5] = target: T2, DYRK2 (Homo sapiens, UniProt Q92630); test: Protein kinase assay ([γ-33P]-ATP, RS peptide substrate), DYRK2; type: biochemical; conditions: for IC50: 15 µM ATP
T2 sequence (Q92630 1-601): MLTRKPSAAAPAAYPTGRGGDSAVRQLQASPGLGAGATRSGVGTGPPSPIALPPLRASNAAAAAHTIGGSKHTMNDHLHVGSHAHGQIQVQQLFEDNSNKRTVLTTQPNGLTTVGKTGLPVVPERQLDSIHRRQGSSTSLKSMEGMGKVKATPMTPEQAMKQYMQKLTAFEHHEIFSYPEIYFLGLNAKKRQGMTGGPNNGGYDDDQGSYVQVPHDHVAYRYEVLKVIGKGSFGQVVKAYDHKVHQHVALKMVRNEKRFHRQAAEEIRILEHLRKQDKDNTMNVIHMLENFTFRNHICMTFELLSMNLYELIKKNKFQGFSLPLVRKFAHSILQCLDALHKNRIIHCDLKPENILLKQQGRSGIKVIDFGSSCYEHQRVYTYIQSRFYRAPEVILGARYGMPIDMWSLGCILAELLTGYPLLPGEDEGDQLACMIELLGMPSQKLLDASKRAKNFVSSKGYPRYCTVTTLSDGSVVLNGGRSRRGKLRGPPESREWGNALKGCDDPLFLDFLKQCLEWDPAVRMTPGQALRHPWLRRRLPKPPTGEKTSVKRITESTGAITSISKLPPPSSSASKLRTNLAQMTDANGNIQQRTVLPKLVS
Procedure: as §1

[6] = target: GSK-3; test: Protein kinase assay ([γ-33P]-ATP, GS-1 substrate), GSK-3
[7] = Kinetic solubility, laser nephelometry; type: physicochemical; conditions: phosphate buffer pH 7.4, nephelometry
Procedure: The kinetic solubility was determined using laser nephelometry. A stock solution of the test compounds in DMSO was prepared and further diluted with DMSO to achieve a dilution series of 8–12 solutions with different concentrations. The DMSO solutions (2 µL) were placed in a row on a 96-well plate and diluted with aqueous phosphate buffer pH 7.4 (198 µL). The well plate was scanned by a nephelometer (Nephelostar Plus, BMG Labtech, Ortenberg, Germany). Unsolved particles scatter the laser light which is detected by the nephelometer. The intensity of the scattered light is proportional to the particle concentration in the suspension. The intensity of the scattered light was plotted versus the concentration to obtain a kick off curve. The concentration at which the compounds began to precipitate was directly read out from the kick off curve.

[8] = Thermodynamic solubility, shake-flask method with HPLC quantification; type: physicochemical; conditions: phosphate buffer pH 7.4, 25 °C
Procedure: For solubility assays an aqueous phosphate buffer pH 7.4 was used. The buffer was prepared by dissolving Na2HPO4 × 2 H2O (298 mg), KH2PO4 (19 mg) and NaCl (800 mg) in water (100 mL). The pH was adjusted to 7.4 by addition of hydrochloric acid. The thermodynamic solubility was determined using a shake-flask method with quantification by a HPLC method. The test compounds (500 µg) were incubated with aqueous phosphate buffer pH 7.4 (400 µL) in sealed Whatman MiniUniPrep vials (GE Healthcare, Freiburg, Germany). The mixtures were shaken at 25 °C and 400 rpm for 24–96 h (IKA KS 3000 ic control, IKA-Werke, Staufen, Germany). After 24 h, 48 h and 72 h, the mixtures were visually inspected for remaining solids and the solids were filtered off. The concentrations in the resulting saturated solutions were quantified by isocratic HPLC using calibration with external standard. If equilibrium was not reached after 72 h, solubility of a further sample was determined after 96 h. For calibration, a stock solution of 10 mM of the test compounds in DMSO was prepared and the stock solution was diluted with ACN to suitable concentrations. The AUC at the wavelength maxima was used for quantification.

[9] = target: CLK3 (Mus musculus, UniProt O35492); test: Protein kinase assay ([γ-33P]-ATP, RS peptide substrate), CLK3; type: biochemical; conditions: for IC50: 15 µM ATP; for inhibition at 10 µM: 10 µM compound, read-out: Inhibition at 10 µM CLK3 (class symbol)
Procedure: as §1

[10] = Cytotoxicity, cell viability by tetrazolium dye assay (XTT assay); type: cell-based; conditions: human, HeLa cells, read-out: Viability of treated HeLa cells relative to control cells
Procedure: To evaluate the applicability of the 2-substituted indole-3-carbonitrile compounds in cell culture experiments, we assessed toxicity of 6f, 6h, 6s and 13b on HeLa cells by viability assays (Table 4).
The inhibitors were added to the cultured cells from stock solutions in DMSO to the desired final concentration. For cytotoxicity assays, HeLa cells were grown in 96-well plates (20,000–30,000 cells per well) and incubated with the test compounds for 3 days before cell viability was evaluated with the help of a tetrazolium dye assay (XTT assay, AppliChem GmbH, Darmstadt, Germany).

[11] = target: CLK1 (Mus musculus, UniProt P22518); test: Protein kinase assay ([γ-33P]-ATP, RS peptide substrate), CLK1; type: biochemical; conditions: for IC50: 15 µM ATP
Procedure: as §1

[12] = target: T3, DYRK1A (Homo sapiens, UniProt Q13627); test: Protein kinase assay ([γ-33P]-ATP, RS peptide substrate), DYRK1A; type: biochemical; conditions: for IC50: 15 µM ATP, read-out: IC50 DYRK 1A
[13] = target: T3, DYRK1A; test: Ligand-lipophilicity efficiency (pIC50 minus calculated logP)
Procedure: All new compounds were evaluated based on their physicochemical properties regarding Lipinski’s rule of five and the ligand-lipophilicity efficiency (LLE). Both concepts are used to assess the druglikeness of drug development candidates. […] LLE is calculated from pIC50 minus calculated logP [46].

[14] = system: DYRK1A (phosphorylation of T434 in SF3B1) in HeLa cells; test: Inhibition of endogenous DYRK1A activity in HeLa cells (phosphorylation of T434 in GFP-SF3B1-NT, Western blot); type: cell-based; conditions: HeLa cells, negative control
Procedure: Phosphorylation of T434 in SF3B1 depends on endogenous DYRK1A activity and can be assessed with the help of a phosphospecific antibody [43].
Briefly, HeLa cells were grown in 6-well plates and treated with test compounds for 18 h before cells were lysed with 100 μL SDS lysis buffer (20 mM Tris HCl pH 7.4, 1% SDS) at 96 °C and sonicated. […] Relative phosphorylation of SF3B1 was calculated by normalisation to total protein levels as determined from GFP immunoreactivity. IC50 values were determined by non-linear curve fitting using the GraphPad Prism 5.0 program (GraphPad Software, La Jolla, CA, USA).
HeLa cells expressing GFP-SF3B1-NT were treated with the indicated compounds for 18 h before cells were lysed with a denaturing lysis. The phosphorylation state of SF3B1 was determined by Western blot analysis of total cellular lysates. The pT434 signals were normalized to the total amount of GFP immunoreactivity. […] The graphs present the quantitative evaluation of two (6s) or three experiments. DYRK1A activity is expressed as normalized pT434 immunoreactivity relative to that in cells treated with vehicle (means ± SEM).

[15] = pIC50 (DYRK1A) minus calculated logP

CLK3, sequence (O35492 whole entry): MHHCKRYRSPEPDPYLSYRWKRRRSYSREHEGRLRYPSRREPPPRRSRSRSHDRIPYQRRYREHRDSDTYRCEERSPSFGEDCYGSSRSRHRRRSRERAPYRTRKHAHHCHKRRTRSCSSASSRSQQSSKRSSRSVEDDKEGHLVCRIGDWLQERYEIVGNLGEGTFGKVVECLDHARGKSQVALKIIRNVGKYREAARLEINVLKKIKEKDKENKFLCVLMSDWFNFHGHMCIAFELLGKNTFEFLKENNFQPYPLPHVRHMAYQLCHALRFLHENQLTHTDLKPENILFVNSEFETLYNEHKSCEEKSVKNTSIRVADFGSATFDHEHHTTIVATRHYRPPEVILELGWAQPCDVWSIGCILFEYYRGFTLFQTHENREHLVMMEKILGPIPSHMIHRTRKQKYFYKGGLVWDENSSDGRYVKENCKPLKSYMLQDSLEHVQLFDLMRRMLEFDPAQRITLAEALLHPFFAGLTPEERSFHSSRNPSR
CLK4, sequence (O35493 whole entry): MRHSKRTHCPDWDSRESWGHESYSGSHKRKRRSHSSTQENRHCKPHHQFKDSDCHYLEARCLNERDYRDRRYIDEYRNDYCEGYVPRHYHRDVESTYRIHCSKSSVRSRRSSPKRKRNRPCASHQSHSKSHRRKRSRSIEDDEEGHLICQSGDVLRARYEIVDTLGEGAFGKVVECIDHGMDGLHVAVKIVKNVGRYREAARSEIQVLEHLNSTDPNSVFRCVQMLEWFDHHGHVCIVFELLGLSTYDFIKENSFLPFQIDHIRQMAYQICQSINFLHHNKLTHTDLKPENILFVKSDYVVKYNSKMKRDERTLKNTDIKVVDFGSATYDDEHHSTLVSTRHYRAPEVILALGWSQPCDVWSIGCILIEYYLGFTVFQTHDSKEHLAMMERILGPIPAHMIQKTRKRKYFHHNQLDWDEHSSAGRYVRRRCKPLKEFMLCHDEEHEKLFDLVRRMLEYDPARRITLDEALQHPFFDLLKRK
CLK2, sequence (O35491 whole entry): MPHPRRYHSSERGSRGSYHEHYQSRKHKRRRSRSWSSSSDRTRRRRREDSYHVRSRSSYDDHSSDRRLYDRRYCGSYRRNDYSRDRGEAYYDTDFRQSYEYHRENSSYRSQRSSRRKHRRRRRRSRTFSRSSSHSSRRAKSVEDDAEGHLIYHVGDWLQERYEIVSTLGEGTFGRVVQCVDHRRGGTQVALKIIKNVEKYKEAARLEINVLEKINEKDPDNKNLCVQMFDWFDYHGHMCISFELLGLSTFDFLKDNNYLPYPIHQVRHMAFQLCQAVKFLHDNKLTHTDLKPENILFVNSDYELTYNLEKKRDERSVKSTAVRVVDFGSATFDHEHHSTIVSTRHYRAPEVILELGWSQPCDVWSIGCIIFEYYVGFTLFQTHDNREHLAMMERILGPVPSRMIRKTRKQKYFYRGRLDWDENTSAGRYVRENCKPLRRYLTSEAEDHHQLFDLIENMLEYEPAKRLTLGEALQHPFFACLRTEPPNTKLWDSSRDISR
CLK1, sequence (P22518 whole entry): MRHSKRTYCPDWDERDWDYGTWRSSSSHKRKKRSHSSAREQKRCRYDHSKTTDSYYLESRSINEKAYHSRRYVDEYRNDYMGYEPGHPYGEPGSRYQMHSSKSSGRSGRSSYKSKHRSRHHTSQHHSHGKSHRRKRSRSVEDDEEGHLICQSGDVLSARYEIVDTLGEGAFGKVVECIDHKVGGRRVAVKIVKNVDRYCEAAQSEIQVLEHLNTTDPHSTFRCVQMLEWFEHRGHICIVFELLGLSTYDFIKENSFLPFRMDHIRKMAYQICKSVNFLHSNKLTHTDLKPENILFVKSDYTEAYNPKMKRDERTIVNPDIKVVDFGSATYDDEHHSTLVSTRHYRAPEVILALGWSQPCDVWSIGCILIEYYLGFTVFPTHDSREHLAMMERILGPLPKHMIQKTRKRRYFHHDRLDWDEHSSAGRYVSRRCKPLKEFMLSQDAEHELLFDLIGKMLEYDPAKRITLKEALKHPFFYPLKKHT
DYRK1B, sequence (Q9Y463 whole entry): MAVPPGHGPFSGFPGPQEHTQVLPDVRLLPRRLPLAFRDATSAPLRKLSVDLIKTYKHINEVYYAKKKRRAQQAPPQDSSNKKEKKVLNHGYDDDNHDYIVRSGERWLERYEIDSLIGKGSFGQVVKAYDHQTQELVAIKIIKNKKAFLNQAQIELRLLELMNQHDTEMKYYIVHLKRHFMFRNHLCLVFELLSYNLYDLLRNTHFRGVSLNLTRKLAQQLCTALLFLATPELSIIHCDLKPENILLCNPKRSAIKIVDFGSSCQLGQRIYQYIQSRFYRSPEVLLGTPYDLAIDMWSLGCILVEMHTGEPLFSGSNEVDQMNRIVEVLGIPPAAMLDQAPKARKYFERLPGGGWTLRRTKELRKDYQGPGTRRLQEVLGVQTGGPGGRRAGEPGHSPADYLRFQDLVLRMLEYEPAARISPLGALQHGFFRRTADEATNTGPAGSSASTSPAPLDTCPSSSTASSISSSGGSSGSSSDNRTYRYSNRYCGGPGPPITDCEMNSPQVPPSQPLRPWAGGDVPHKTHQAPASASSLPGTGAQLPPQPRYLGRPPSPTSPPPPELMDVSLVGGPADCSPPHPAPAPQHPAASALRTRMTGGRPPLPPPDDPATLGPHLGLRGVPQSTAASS

| Compound | IC50 [1] | IC50 [2] | IC50 [3] | IC50 [4] | IC50 [5] | Sexp., kin., pH 7.4 [7] | Sexp., therm., pH 7.4 [8] | IC50 [9] | viability at 3 days, 1 µM [10] | viability at 3 days, 3 µM [10] | viability at 3 days, 10 µM [10] | IC50 [11] | further results |
| --- | --- | --- | --- | --- | --- | --- | --- | --- | --- | --- | --- | --- | --- |
| N#Cc1c[nH]c2c(Cl)cccc12 [Compound 6a, 7-Chloro-1H-indole-3-carbonitrile] | > 10000 nM | > 10000 nM | > 10000 nM | > 10000 nM | > 10000 nM | 116 ± 14 µM | 143 ± 6.3^c µM | > 10000 nM |  |  |  |  | IC50 ([6]; read-out: IC50 GSK3, 15 µM ATP): > 10000 nM |
| N#Cc1c(-c2ccccc2)[nH]c2c(Cl)cccc12 [Compound 6f, 7-Chloro-2-phenyl-1H-indole-3-carbonitrile] | > 10000 nM | 120 nM | > 10000 nM | > 10000 nM | > 10000 nM | 14.7 ± 4.5 µM | <0.5 µM | > 10000 nM | 94% | 98% | 85% | 70 nM |  |
| N#Cc1c(-c2ccccc2)[nH]c2c(I)cccc12 [Compound 6h, 7-Iodo-2-phenyl-1H-indole-3-carbonitrile] | > 10000 nM | 50 nM | 2000 nM | 570 nM | > 10000 nM | 4.57 (4.11–5.03) µM | <0.5 µM | > 10000 nM | 97% | 97% | 87% | 80 nM |  |
| N#Cc1c(C2CC2)[nH]c2c(I)cccc12 [Compound 6r, 2-Cyclopropyl-7-iodo-1H-indole-3-carbonitrile] | > 10000 nM | 100 nM | 1000 nM | 500 nM | 8000 nM | 38.1 (37.6–38.6) µM | <0.5 µM |  |  |  |  | 110 nM | IC50 [12]: 140 nM; Inhibition at 10 µM GSK3 (class symbol) ([6]; 10 µM compound): - (-: less than 20% inhibition at 10 µM, IC50 was not determined); LLE ([13]; Table S2): 3.37; LLE [13, 15]: 3.37; inhibition at 10 µM [9]: < 20% |
| N#Cc1cn(Cc2ccccc2)c2c(Br)cccc12 [Compound 13b, 1-Benzyl-7-bromo-1H-indole-3-carbonitrile] |  |  |  |  |  |  |  |  | 94% | 94% | 66% |  | remaining activity at 10 µM ([12]; 10 µM compound, compared to controls, read-out: Residual Activity at 10 µM DYRK 1A): 81%; Residual Activity at 10 µM GSK3 ([6]; 10 µM compound, compared to controls): 114%; Effect on the phosphorylation of SF3B1 on T434 [14]: did not affect; remaining activity at 10 µM ([11]; 10 µM compound, compared to controls, read-out: Residual Activity at 10 µM CLK1): 53% |
| Cn1c(-c2ccccc2)c(C#N)c2cccc(I)c21 [Compound 13f, 7-Iodo-1-methyl-2-phenyl-1H-indole-3-carbonitrile] |  | 1000 nM | > 10000 nM | 2100 nM |  | 37.5 (36.6–38.4) µM | <0.5 µM |  |  |  |  | 600 nM | IC50 [12]: 650 nM; inhibition at 10 µM ([1]; 10 µM compound, read-out: Inhibition at 10 µM DYRK3 (class symbol)): < 20%; inhibition at 10 µM ([5]; 10 µM compound, read-out: Inhibition at 10 µM DYRK2 (class symbol)): < 20%; Inhibition at 10 µM GSK3 (class symbol) ([6]; 10 µM compound): - (-: less than 20% inhibition at 10 µM, IC50 was not determined); LLE ([13]; Table S2): 1.54; LLE [13, 15]: 1.54; inhibition at 10 µM [9]: < 20% |
| O=C(O)c1nc2ccccc2c2[nH]c3c(I)cccc3c12 [KuFal194 (5), 10-iodo-11H-indolo[3,2-c]quinoline-6-carboxylic acid, reference compound] |  |  |  |  |  | 5.28 (4.99–5.57) µM | < 0.5 µM |  | 78% | 75% | 45% |  |  |
